The target of this experiment is T1, human PAR-2 (hPAR-2) receptor expressed in HEK-293 T cells in an endogenous manner (Homo sapiens, UniProt P55085).
T1 construct: human PAR-2 (hPAR-2) receptor expressed in HEK-293 T cells in an endogenous manner; endogenous in cells; host or cells: HEK-293 T cells
T1 sequence (P55085 26-397): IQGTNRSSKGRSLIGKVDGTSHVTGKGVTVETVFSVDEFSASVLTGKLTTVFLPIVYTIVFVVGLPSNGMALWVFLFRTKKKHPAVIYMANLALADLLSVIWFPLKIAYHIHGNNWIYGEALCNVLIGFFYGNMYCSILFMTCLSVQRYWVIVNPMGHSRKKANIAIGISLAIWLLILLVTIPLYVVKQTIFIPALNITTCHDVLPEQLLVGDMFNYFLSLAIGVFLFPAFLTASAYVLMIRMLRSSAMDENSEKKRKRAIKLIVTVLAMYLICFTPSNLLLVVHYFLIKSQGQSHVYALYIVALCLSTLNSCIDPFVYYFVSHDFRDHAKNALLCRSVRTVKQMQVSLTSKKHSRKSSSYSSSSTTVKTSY
In words: In vitro human PAR-2 functional antagonist activity using calcium assays (Fluo4AM, FLIPR Tetra). In kind it is cell-based. To be noted: HEK-293 T cells stimulated by an EC80 of the 2-Furoyl-LIGRLO-NH2 peptide after 10 min incubation with compound; 20 concentrations, duplicate, two independent experiments. The method in brief: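 Fluo4AM-loaded HEK-293 T cells were exposed to compound for 10 min to read agonist effect. They were then stimulated with an EC80 of 2-Furoyl-LIGRLO-NH2 and intracellular calcium was recorded for 5 more min on FLIPR. Antagonism was scored against buffer basal and EC80 agonist-alone signals.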

pIC50: −log10 of the molar value.

As for `CC1(C)C(=O)N(CC(=O)N2CCOCC2)CCN1C(=O)c1ccc2c(-c3ccc(Cl)c(F)c3)cn(C(C)(C)C)c2n1` [Example 8, 4-(1-(tert-butyl)-3-(4-chloro-3-fluorophenyl)-1H-pyrrolo[2,3-b]pyridine-6-carbonyl)-3,3-dimethyl-1-(2-morpholino-2-oxoethyl)piperazin-2-one], the pIC50 is > 7.70. Regarding `Cc1cc(N2CCN(C(=O)c3ccc4c(-c5ccc(Cl)c(F)c5)cn(CC5CCC5)c4n3)C(C)(C)C2)nc(C)c1C(=O)O` [Example 171, 6-(4-(3-(4-chloro-3-fluorophenyl)-1-(cyclobutylmethyl)-1H-pyrrolo[2,3-b]pyridine-6-carbonyl)-3,3-dimethylpiperazin-1-yl)-2,4-dimethylnicotinic acid], the pIC50 was > 7.70. Next, `CC(C)(C)n1cc(-c2ccc(Cl)c(F)c2)c2ccc(C(=O)N3CCC4(NC(=O)NC4=O)C(C)(C)C3)nc21` (centres unmarked) [Example 200, 8-(1-(tert-butyl)-3-(4-chloro-3-fluorophenyl)-1H-pyrrolo[2,3-b]pyridine-6-carbonyl)-6,6-dimethyl-1,3,8-triazaspiro[4.5]decane-2,4-dione]: 5.00 to 7.70. With `CCOP(=O)(OCC)c1ccc(N2CCN(C(=O)c3ccc4c(-c5ccc(Cl)c(F)c5)cn(C(C)(C)C)c4n3)C(C)(C)C2)nc1` [Example 178, diethyl (6-(4-(1-(tert-butyl)-3-(4-chloro-3-fluorophenyl)-1H-pyrrolo[2,3-b]pyridine-6-carbonyl)-3,3-dimethylpiperazin-1-yl)pyridin-3-yl)phosphonate] the figure was 5.00 to 7.70.

For the compound `Cc1cc(N2CCN(C(=O)c3ccc4c(-c5ccc(Cl)c(F)c5)cn(C(C)(C)CO)c4n3)C(C)(C)C2)nc(C)c1C(=O)O` [Example 102, 6-(4-(3-(4-chloro-3-fluorophenyl)-1-(1-hydroxy-2-methylpropan-2-yl)-1H-pyrrolo[2,3-b]pyridine-6-carbonyl)-3,3-dimethylpiperazin-1-yl)-2,4-dimethylnicotinic acid], the pIC50 is 5.00 to 7.70.

Consider `CC(C)(C)c1nc(-c2ccc(Cl)cc2)n2ccc(C(=O)N3CCN(c4ccc(C(=O)O)cn4)CC3(C)C)nc12` [Example 217, 6-(4-(8-(tert-butyl)-6-(4-chlorophenyl)imidazo[1,5-a]pyrimidine-2-carbonyl)-3,3-dimethylpiperazin-1-yl)nicotinic acid], for which the pIC50 is 5.00 to 7.70. Next, `CC(C)Cc1nn(-c2ccc(Cl)c(F)c2)c2ccc(C(=O)N3CCNC(=O)C3(C)C)cc12` [Example 228, 4-(1-(4-chloro-3-fluorophenyl)-3-isobutyl-1H-indazole-5-carbonyl)-3,3-dimethylpiperazin-2-one]: 5.00 to 7.70; `Cc1cc(N2CCN(C(=O)c3ccc4c(-c5ccc(Cl)c(F)c5)cn(Cc5ncco5)c4n3)C(C)(C)C2)nc(C)c1C(=O)O` [Example 173]: 5.00 to 7.70.

`CC(C)Cc1nn(-c2ccc(Cl)c(F)c2)c2ccc(C(=O)N3CCN(C)C(=O)C3)nc12` [Example 63, 4-(1-(4-chloro-3-fluorophenyl)-3-isobutyl-1H-pyrazolo[4,3-b]pyridine-5-carbonyl)-1-methylpiperazin-2-one]: the negative logarithm of the IC50 (pIC50) was < 5.00. Take `Cc1c(-c2ccc(Cl)c(F)c2)c2ccc(C(=O)N3CCNC(=O)C3(C)C)nc2n1CC(C)C` [Example 38, 4-(3-(4-chloro-3-fluorophenyl)-1-isobutyl-2-methyl-1H-pyrrolo[2,3-b]pyridine-6-carbonyl)-3,3-dimethylpiperazin-2-one]: the pIC50 is > 7.70.

`CC1(C)C(=O)NCCN1C(=O)c1ccc2c(n1)c(C1CCOCC1)nn2-c1ccc(Cl)c(F)c1` [Example 72, 4-(1-(4-chloro-3-fluorophenyl)-3-(tetrahydro-2H-pyran-4-yl)-1H-pyrazolo[4,3-b]pyridine-5-carbonyl)-3,3-dimethylpiperazin-2-one]: the pIC50 is 5.00 to 7.70. Next, `CC(C)(C)c1cn(-c2ccc(Cl)c(F)c2)c2ccc(C(=O)N3CCC(CC(=O)O)CC3)nc12` [Example 222, 2-(1-(3-(tert-butyl)-1-(4-chloro-3-fluorophenyl)-1H-pyrrolo[3,2-b]pyridine-5-carbonyl)piperidin-4-yl)acetic acid]: < 5.00; `Cc1cc2c(-c3ccc(Cl)c(F)c3)cn(CC(C)C)c2nc1C(=O)N1CCN(c2cc(C)c(C(=O)O)c(C)n2)CC1` [Example 186, 6-(4-(3-(4-chloro-3-fluorophenyl)-1-isobutyl-5-methyl-1H-pyrrolo[2,3-b]pyridine-6-carbonyl)piperazin-1-yl)-2,4-dimethylnicotinic acid]: < 5.00; `CC(C)(C)n1cc(-c2ccc(Cl)c(F)c2)c2ccc(C(=O)N3CCC(CC(=O)O)CC3)nc21` [Example 125, 2-(1-(1-(tert-butyl)-3-(4-chloro-3-fluorophenyl)-1H-pyrrolo[2,3-b]pyridine-6-carbonyl)piperidin-4-yl)acetic acid]: 5.00 to 7.70. Turning to `CC(C)(C)n1cc(-c2ccc(Cl)c(F)c2)c2ccc(C(=O)N3CCC4(NC(=O)NC4=O)C(F)(F)C3)nc21` (centres unmarked) [Example 201, 8-(1-(tert-butyl)-3-(4-chloro-3-fluorophenyl)-1H-pyrrolo[2,3-b]pyridine-6-carbonyl)-6,6-difluoro-1,3,8-triazaspiro[4.5]decane-2,4-dione], the pIC50 is 5.00 to 7.70. Regarding `Cc1cc(N2CCN(C(=O)c3ccc4c(-c5ccc(Cl)c(F)c5)cn(C(C)(C)C)c4n3)CC2)nc(C)c1C(=O)O` [Example 99, 6-(4-(1-(tert-butyl)-3-(4-chloro-3-fluorophenyl)-1H-pyrrolo[2,3-b]pyridine-6-carbonyl)piperazin-1-yl)-2,4-dimethylnicotinic acid], the pIC50 was > 7.70. With `CC(C)Cc1nn(-c2ccc(Cl)c(F)c2)c2ccc(C(=O)N3CCC4(CC3)C(=O)NCN4c3ccccc3)nc12` [Example 94, 8-(1-(4-chloro-3-fluorophenyl)-3-isobutyl-1H-pyrazolo[4,3-b]pyridine-5-carbonyl)-1-phenyl-1,3,8-triazaspiro[4.5]decan-4-one] the figure was < 5.00; with `Cc1cc(N(C)[C@H]2CCN(C(=O)c3ccc4c(-c5ccc(Cl)c(F)c5)cn(C(C)(C)C)c4n3)C2)nc(C)c1C(=O)O` [Example 156, (S)-6-((1-(1-(tert-butyl)-3-(4-chloro-3-fluorophenyl)-1H-pyrrolo[2,3-b]pyridine-6-carbonyl)pyrrolidin-3-yl)(methyl)amino)-2,4-dimethylnicotinic acid], 5.00 to 7.70. For `Cc1cc(N2CCN(C(=O)c3ccc4c(-c5cc(F)c(F)c(F)c5)cn(CC(C)C)c4n3)C(C)(C)C2)nc(C)c1C(=O)O` [Example 143, 6-(4-(1-isobutyl-3-(3,4,5-trifluorophenyl)-1H-pyrrolo[2,3-b]pyridine-6-carbonyl)-3,3-dimethylpiperazin-1-yl)-2,4-dimethylnicotinic acid], the pIC50 was > 7.70. Next, `CC(C)N1CNC(=O)C12CCN(C(=O)c1ccc3c(-c4ccc(Cl)c(F)c4)cn(C(C)(C)C)c3n1)CC2` [Example 207, 8-(1-(tert-butyl)-3-(4-chloro-3-fluorophenyl)-1H-pyrrolo[2,3-b]pyridine-6-carbonyl)-1-isopropyl-1,3,8-triazaspiro[4.5]decan-4-one]: > 7.70.

Take `COCC1CN(C(=O)c2ccc3c(-c4ccc(Cl)c(F)c4)cn(C(C)(C)C)c3n2)CCN1c1cc(C)c(C(=O)O)c(C)n1` (centres unmarked) [Example 132, 6-(4-(1-(tert-butyl)-3-(4-chloro-3-fluorophenyl)-1H-pyrrolo[2,3-b]pyridine-6-carbonyl)-2-(methoxymethyl)piperazin-1-yl)-2,4-dimethyinicotinic acid]: the pIC50 was 5.00 to 7.70. In the case of `Cc1cc(N[C@H]2CCN(C(=O)c3ccc4c(-c5ccc(Cl)c(F)c5)cn(C(C)(C)C)c4n3)C2)nc(C)c1C(=O)O` [Example 154, (S)-6-((1-(1-(tert-butyl)-3-(4-chloro-3-fluorophenyl)-1H-pyrrolo[2,3-b]pyridine-6-carbonyl)pyrrolidin-3-yl)amino)-2,4-dimethylnicotinic acid], the pIC50 is < 5.00. With `CC(C)(C)c1nn(-c2ccc(Cl)c(F)c2)c2ccc(C(=O)N3CCNC(=O)C3(C)C)nc12` [Example 75] the figure was 5.00 to 7.70.

For the compound `Cc1cc(N2CCN(C(=O)c3ccc4c(-c5ccc(Cl)c(F)c5)cn(C(C)(C)C)c4n3)CC2CO)nc(C)c1C(=O)O` (centres unmarked) [Example 157, 6-(4-(1-(tert-butyl)-3-(4-chloro-3-fluorophenyl)-1H-pyrrolo[2,3-b]pyridine-6-carbonyl)-2-(hydroxymethyl)piperazin-1-yl)-2,4-dimethylnicotinic acid], the pIC50 is 5.00 to 7.70.

As for `CC1(C)C(=O)NCCN1C(=O)c1ccc2c(n1)c(C1CCCC1)nn2-c1ccc(Cl)c(F)c1` [Example 76, 4-(1-(4-chloro-3-fluorophenyl)-3-cyclopentyl-1H-pyrazolo[4,3-b]pyridine-5-carbonyl)-3,3-dimethylpiperazin-2-one], the pIC50 is 5.00 to 7.70. With `CC1(C)C(=O)NCCN1C(=O)c1ccc2c(-c3ccc(Cl)c(F)c3)cn(CCn3cncn3)c2n1` [Example 40, 4-(1-(2-(1H-1,2,4-triazol-1-yl)ethyl)-3-(4-chloro-3-fluorophenyl)-1H-pyrrolo[2,3-b]pyridine-6-carbonyl)-3,3-dimethylpiperazin-2-one] the figure was 5.00 to 7.70.

(Values after US20240066027A1 (DOMAIN THERAPEUTICS, priority 2020, published 2024).)
